In data set [1] the test system is tumor-bearing KP^f/fC mice. Put plainly: tumor-bearing KP^f/fC mice in vivo (AZD-0284, JTE-151). Further details: species or system mouse.
Another data set deals with PDX1356 xenografts. Put plainly: PDX1356 xenografts in mice. The format is in vivo, human. From the text:
(§1) Finally, the impact of JTE-151 was examined in vivo on mice bearing primary patient-derived pancreatic cancer xenografts (FIGS. 70-78). […] FIGS. 70-72 show 3 rounds of treatment in an experiment using mice bearing PDX1356 xenographs. The horizontal axis of the first panel in each of FIGS. 70-72 represents days of treatment, and the vertical axis represents tumor volume. The horizontal axis of each of the remaining panels represents the target (vehicle vs. JTE-151 mouse), and the vertical axis represents the specified measurement. JTE-151 was given at the regimen as specified in the figures. For example, in the first round (FIG. 70), JTE-151 was given at 90 mg/kg body weight once per day for the first 25 days, then twice per day from day 26 though day 40.

For data set [2], the system named is primary patient-derived PDX1424 cancer cells. Description: PDX1424 xenografts in mice. The class given is in vivo, human.
Description: (§2) FIG. 45 is a compilation of all data from mice bearing PDX or FG cancer xenographs, including PDX1424, PDX1444, and FG.
as §1
(§3) Two other primary patient-derived xenografts, PDX1535 (FIGS. 74 and 75) and PDX1424 (FIGS. 76 and 77), were tested using JTE-151 at 90 mg/kg once per day. […] Considering the reduced tumor mass and cell numbers, the absence of a significant change in tumor volume may be due to necrotic cells that remained for a while post drug treatment.

A further data set relates to PDX1535 xenograft. Put plainly: PDX1535 xenografts in mice. The following applies: JTE-151 90 mg/kg once per day. The class given is in vivo, human.
Description: as §1, §3
For orientation: In xenograft studies the graft and the host belong to different species.

A further data set has as its system KP^f/fC cells. Put plainly: pancreatic tumorsphere formation assay. The class given is cell-based, mouse. Conditions: SR2211 vs vehicle. The protocol:
Pancreatic tumorsphere formation assays were performed and modified from (Rovira et al., 2010). Briefly, low-passage (<6 passages) WT or REM2-KP^f/fC cell lines were infected with lentiviral particles containing shRNAs; positively infected (red) cells were sorted 72 hours after transduction. 100-300 infected cells were suspended in tumorsphere media: 100 μl DMEM F-12 (Gibco, Life Technologies) containing 1× B-27 supplement (Gibco, Life Technologies), 3% FBS, 100 μM B-mercaptoethanol (Gibco, Life Technologies), 1× non-essential amino acids (Gibco, Life Technologies), 1× N2 supplement (Gibco, Life Technologies), 20 ng/ml EGF (Gibco, Life Technologies), 20 ng/ml bFGF2 (Gibco, Life Technologies), and 10 ng/ml ESGRO mLIF (Thermo Fisher). Cells in media were plated in 96-well ultra-low adhesion culture plates (Costar) and incubated at 37° C. for 7 days. KP^f/fC in vitro tumorsphere formation studies were conducted at a minimum of n=3 independent wells per cell line across two independent shRNA of n=3 wells; however, the majority of these experiments were additionally completed in >1 independently-derived cell lines n=3, at n=3 wells per shRNA.

Data set [3] deals with primary murine PanIN derived organoids. Description: PanIN derived organoids. The format is cell-based. The protocol:
Moreover, RORγ inhibitor SR2211 can block the growth of benign pancreatic intraepithelial neoplasia (PanIN) lesions. The effect of SR2211 was tested on dissociated primary murine PanIN derived organoids.

Data set [4] deals with organoids derived from adenosquamous tumors. Put plainly: adenosquamous tumor organoids (Msi2-Cre^ER/LSL-Myc). The format is cell-based, mouse. From the text: A new Msi2-Cre^ER mouse model of aggressive pancreatic cancer was created, in which Cre is driven off of the Msi2 promoter and can be conditionally triggered by tamoxifen delivery. This Msi2-Cre^ER driver can be crossed into mice bearing distinct mutations such as Ras (leading to myeloproliferative neoplasia), p53, or Myc. When the Msi2-Cre^ER driver was crossed into an LSL-MyC^T58A model developed by Dr. Robert Wechsler-Reya at SBP/Rady, La Jolla, Calif. (Mollaoglu et al., 2017) (FIG. 79), it produced multiple cancer types including small cell lung cancer, choroid plexus tumors, and early stage kidney tumors.

Data set [5] deals with primary patient derived xenografts. Put plainly: primary patient derived xenografts, SR2211. The following applies: human. The procedure: Subcutaneous tumor dimensions were measured with calipers 1-2× weekly.
Data set [6] relates to Msi2-reporter+ stem cells. Description: live imaging of REM2-KP^f/fC tumors. The class given is in vivo, mouse. The procedure: For imaging, mice were anesthetized by intraperitoneal injection of ketamine and xylazine (100/20 mg/kg). In order to visualize blood vessels and nuclei, mice were injected retro-orbitally with AlexaFluor 647 anti-mouse CD144 (VE-cadherin) antibody and Hoechst 33342 immediately following anesthesia induction. After 25 minutes, pancreatic tumors were removed and placed in HBSS containing 5% FBS and 2 mM EDTA. 80-150 μm images in 1024×1024 format were acquired with an HCX APO L20× objective on an upright Leica SP5 confocal system using Leica LAS AF 1.8.2 software. GFP cluster sizes were measure using ImageJ 1.51s software. 2 mice per treatment group were analyzed in this study; 6-10 frames were analyzed per mouse.

The next data set relates to Fast Growing (FG) cells. Description: Fast Growing (FG) cell xenografts in mice. The format is in vivo, human.
Description: as §2

The mark [7] stands for this setting: 30 mg/kg JTE-151 once daily for about 3 weeks (FIG. 52).
Where [8] appears, read: 90 mg/kg JTE-151, 3 weeks, compilation (FIG. 57).
Setting [9] is: 90 mg/kg JTE-151, 3 weeks, individual experiments (FIGS. 53-55).
Where [10] appears, read: JTE-151 at either 30 mg/kg or 90 mg/kg, 3 weeks (FIG. 58).
Where [11] appears, read: first round: JTE-151 90 mg/kg once per day for 25 days, then twice per day to day 40.
Setting [12] is: third round: JTE-151 90 mg/kg once per day.
Setting [13] is: AZD-0284 90 mg/kg once daily + gemcitabine 25 mg/kg once weekly, 3 weeks.
[14] abbreviates: AZD-0284 in combination with gemcitabine.

Turning to `Cc1ccc(NC(=O)C[C@H](CCC(=O)O)c2noc([C@H]3C[C@@H](CC(C)(C)C)C3)c2C2CC2)c(Cl)c1` [JTE-151, (4S)-6-[(2-chloro-4-methylphenyl)amino]-4-{4-cyclopropyl-5-[cis-3-(2,2-dimethylpropyl)cyclobutyl]isoxazol-3-yl}-6-oxohexanoic acid], the “EpCam+ tumor epithelial cells” value was “decrease in EpCam+ tumor epithelial cells was statistically significant” in data set [1] (setting [7]); “loss” in [1] (setting [8]); “decreased” in data set [1] (setting [9]); “loss” in data set [1] (setting [10]); “lower” in the data set with PDX1356 xenografts (setting [11]); “reduced” in the data set on PDX1356 xenografts (setting [12]). The “EpCam+ tumor epithelial cells” value (in data set [2] (JTE-151 90 mg/kg once per day); in the data set on PDX1535 xenograft) was “trend of decreased” throughout. For the same compound, the cell number result in [1] (setting [7]), in data set [1] (setting [8]) and in [1] (setting [10]) was “reduced” throughout. Moreover, the “EpCam+/CD133+ tumor stem cells” value is “decreased” in [1] (setting [9]); “lower” with PDX1356 xenografts (setting [11]); “reduced” in the data set on PDX1356 xenografts (setting [12]); “trend of decreased” in [2] (JTE-151 90 mg/kg once per day); “trend of decreased” in the data set with PDX1535 xenograft. In data set [1] (120 mg/kg JTE-151 regimen, mice that responded), the “change of cell number in the tumor” value is recorded as “varied”. Also, the tumor mass result in [1] (JTE-151 at 90 mg/kg (FIG. 58)) is “significantly reduced”; in data set [2] (JTE-151 90 mg/kg once per day), “trend of decreased”; in the data set on PDX1535 xenograft, “trend of decreased”. Besides, the tumor growth rate result was “generally slower” in the data set with PDX1356 xenografts (3 experiments, slope compared to control (FIG. 73)) and “slower” in data set [2] (JTE-151 90 mg/kg once per day (FIG. 77)). The cell count entry with PDX1356 xenografts (setting [11]) was “decreased”. Also, the tumor growth result with PDX1356 xenografts (setting [11]) is listed as “reduced”. Also, the total cell counts result (in data set [2] (JTE-151 90 mg/kg once per day); in the data set with PDX1535 xenograft) was “trend of decreased” throughout. Further, the “tumor volume or growth rate” value with PDX1535 xenograft was “did not exhibit any significant difference”.

As for `OC(c1ccc(-c2ccc(CN3CCN(Cc4ccncc4)CC3)cc2)c(F)c1)(C(F)(F)F)C(F)(F)F` [SR2211], the sphere formation result in the data set with KP^f/fC cells was “decreased”. Also, in data set [3], the organoid number result is reported as “reduced” and the organoid volume entry is reported as “reduced”. Also, the sensitivity of organoids result in data set [4] is “sensitive”. For the same compound, the “tumor growth in vivo” value in data set [5] is given as “marked reduction”. In addition, in data set [6] (mouse, in vivo), the “necrosis in surrounding tissues” value is “no increased necrosis”. Moreover, the “large stem cell clusters” value in [6] (within 1 week of treatment) is listed as “striking depletion”.

As to `CC(=O)N1Cc2cc(S(C)(=O)=O)ccc2[C@@H]1C(=O)Nc1ccc(C(O)(C(F)(F)F)C(F)(F)F)cc1` [AZD-0284], in data set [1] (90 mg/kg AZD-0284 alone), the “EpCam+ tumor epithelial cells” value was “loss”, the “EpCam+/CD133+ tumor stem cells” value is on record as “loss”, the cell number result is “lower” and the tumor mass result is on record as “lower”. Further, in [1] (setting [13]), the “EpCam+ tumor epithelial cells” value is recorded as “loss”, the “EpCam+/CD133+ tumor stem cells” value is “loss” and the cell number result is “lower”. Besides, in data set [2] (60 mg/kg AZD-0284 for 3 weeks), the “EpCam+ tumor epithelial cells” value is “significant reduction” and the “EpCam+/CD133+ tumor stem cells” value is “significant reduction”. For the same compound, in the data set with Fast Growing (FG) cells (90 mg/kg AZD-0284), the “EpCam+/CD133+ tumor stem cells” value is recorded as “decrease” and the total cell number result was “decrease”. In addition, in the data set with Fast Growing (FG) cells (setting [14]), the “EpCam+/CD133+ tumor stem cells” value is “decrease” and the total cell number result was “decrease”.
